Read-outs that look alike come from different tables or passages of the source.
Experiments:
Format in all cases: biochemical, Gluconobacter oxydans DSM No. 4025 (FERM BP-3812)
[1] = molecular target: T1, SNDH II (aldehyde dehydrogenase) (Ketogulonicigenium vulgare, UniProt Q402A8); experiment: Effect of inhibitors and metals on L-sorbosone dehydrogenase activity, photometrical DCIP assay
Method: (§1) The reaction mixture consisted of 0.1 mM DCIP, 1.0 mM PMS, 50 mM potassium phosphate buffer (pH 7.0), 1.0 μM PQQ, 2 to 100 mM substrate (L-sorbosone, D-glucosone, D-glucose, etc.) and enzyme solution in a final volume of 100 μl water, said reaction mixture was prepared just before the assay. The reaction was started at 25° C. with L-sorbosone, and the enzyme activity was measured as the initial reduction rate of DCIP at 600 nm. One unit of the enzyme activity was defined as the amount of the enzyme catalyzing the reduction of 1 μmol DCIP per minute. The extinction coefficient of DCIP at pH 7.0 was taken as 14.2 mM^−1. A reference cuvette contained all the above constituents except for L-sorbosone.
The effects of metal ions and inhibitors on the L-sorbosone dehydrogenase activity of the enzyme were examined by measuring the activity using the same assay method as described under 1b) above. Each compound solution was stirred into the basal reaction mixture and the reaction was started with the addition of the enzyme.
Each compound was added to the reaction mixture at a concentration of 1.0 mM, with the exception that the concentrations of EDTA, NaN3 and monoiodoacetate were 5.0 mM.

[2] = molecular target: T1, SNDH II (aldehyde dehydrogenase); experiment: Substrate specificity of the purified enzyme, photometrical DCIP assay; conditions: for Relative activity compared with that for L-sorbosone (2 mM): at both pH 7.5 and 9.0, D-glucosone 2 mM, others 100 mM; for Product (deduced product of the oxidation of the substrate): substrates of Table 1A; for Relative activity (%): L-sorbosone and D-glucosone 2 mM, other substrates 100 mM, L-sorbosone = 100
Method: as §1
a) The substrate specificity of the enzyme was determined using the same enzyme assay method as described under 1b) above with the exception of using 100 mM potassium phosphate (pH 7.5) or 100 mM Tris-HCl (pH 9.0) as buffer. The relative activity of SNDH II for D-glucosone (2 mM), D-glucose (100 mM), and D-xylose (100 mM) was higher than that for L-sorbosone (2 mM) at both pH 7.5 and 9.0. However, the relative activity for L-sorbose (100 mM), D-sorbitol (100 mM), and L-gulono-γ-lactone (100 mM) was lower than 1% of that for L-sorbosone at both pH 7.5 and 9.0.

[3] = molecular target: T1, SNDH II (aldehyde dehydrogenase); experiment: Electron acceptor suitability for conversion of L-sorbosone; conditions: conversion of L-sorbosone to vitamin C and/or 2-KGA
From the text: This was affirmed by the failure of the enzyme to convert L-sorbosone to vitamin C and/or 2-KGA using oxygen as a possible electron acceptor. Furthermore, no oxygen consumption was detected in the reaction mixture as detected with a dissolved oxygen probe. […] However, other conventional electron acceptors can be utilized in conjunction with the enzyme of this invention. Preferred electron acceptors are phenazine methosulfate (PMS), 2,6-dichlorophenolindophenol (DCIP), ferricyanide and cytochrome c. There is no minimum amount of electron acceptors which must be present for at least some of the aldehyde substrate to be converted to its corresponding acid. However, the amount of substrate which can be oxidized depends on the amount of the particular electron acceptor and its electron accepting characteristics.

[4] = compound at 1.0 mM, None = 100.0
[5] = pH 7.5, 100 mM potassium phosphate

T1 sequence (Q402A8 entry or part of it): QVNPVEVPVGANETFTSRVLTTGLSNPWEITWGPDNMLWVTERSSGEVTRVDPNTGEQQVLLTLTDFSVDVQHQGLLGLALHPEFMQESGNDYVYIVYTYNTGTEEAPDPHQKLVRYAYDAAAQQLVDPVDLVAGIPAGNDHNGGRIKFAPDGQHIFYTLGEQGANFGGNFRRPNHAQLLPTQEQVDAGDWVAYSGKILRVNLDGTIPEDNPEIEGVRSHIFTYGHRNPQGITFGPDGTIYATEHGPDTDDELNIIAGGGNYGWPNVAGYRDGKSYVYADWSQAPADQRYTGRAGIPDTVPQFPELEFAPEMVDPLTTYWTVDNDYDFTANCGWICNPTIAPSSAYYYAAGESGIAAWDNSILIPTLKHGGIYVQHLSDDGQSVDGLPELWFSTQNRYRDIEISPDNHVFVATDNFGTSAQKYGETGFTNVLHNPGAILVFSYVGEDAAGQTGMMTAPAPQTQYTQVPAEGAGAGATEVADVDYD

Structure (SMILES): O.O.[Ca+2].[Cl-].[Cl-] [CaCl2.2H2O]
- Relative activity (%) [1, 4]: 94.7%

Structure (SMILES): O.O.O.O.O.O.[Cl-].[Cl-].[Co+2] [CoCl2.6H2O]
- Relative activity (%) [1, 4]: 60.8%
- Effect on the enzyme activity ([1]; metal ions, 1.0 mM): inhibited

Structure (SMILES): O=S(=O)([O-])[O-].[Cu+2] [CuSO4]
- Relative activity (%) [1, 4]: <1%
- Effect on the enzyme activity ([1]; metal ions, 1.0 mM): inhibited

Structure (SMILES): O=C[C@H](O)[C@@H](O)[C@H](O)[C@H](O)CO [D-Glucose]
- Relative activity compared with that for L-sorbosone (2 mM) [2]: higher
- Product (deduced product of the oxidation of the substrate) [2]: D-Gluconate

Structure (SMILES): O=CC(=O)[C@@H](O)[C@H](O)[C@H](O)CO [D-Glucosone]
- Relative activity compared with that for L-sorbosone (2 mM) [2]: higher
- Relative activity (%) [2, 5]: 483%
- Product (deduced product of the oxidation of the substrate) [2]: D-iso-Ascorbic acid/2-Keto-D-gluconate

Structure (SMILES): OC[C@@H](O)[C@@H](O)[C@H](O)[C@@H](O)CO [D-Sorbitol]
- Relative activity (%) [2, 5]: <1%
- Relative activity (%) ([2]; pH 9.0, 100 mM Tris-HCl): <1%

Structure (SMILES): O=C[C@H](O)[C@@H](O)[C@H](O)CO [D-Xylose]
- Relative activity compared with that for L-sorbosone (2 mM) [2]: higher
- Product (deduced product of the oxidation of the substrate) [2]: D-Xylonic acid

Structure (SMILES): O=C(O)CN(CCN(CC(=O)O)CC(=O)O)CC(=O)O [EDTA]
- Relative activity (%) [1]: 97.9%

Structure (SMILES): O=S(=O)([O-])[O-].O=S(=O)([O-])[O-].O=S(=O)([O-])[O-].[Fe+3].[Fe+3] [Fe2(SO4)3.xH2O]
- Relative activity (%) [1, 4]: 73.2%
- Effect on the enzyme activity ([1]; metal ions, 1.0 mM): inhibited

Structure (SMILES): O=C1O[C@H]([C@@H](O)CO)[C@H](O)[C@@H]1O [L-Gulono-γ-lactone]
- Relative activity (%) [2, 5]: <1%
- Relative activity (%) ([2]; pH 9.0, 100 mM Tris-HCl): <1%

Structure (SMILES): O=C(CO)[C@@H](O)[C@H](O)[C@@H](O)CO [L-Sorbose]
- Relative activity (%) [2, 5]: <1%
- Relative activity (%) ([2]; pH 9.0, 100 mM Tris-HCl): <1%

Structure (SMILES): O=CC(=O)[C@@H](O)[C@H](O)[C@@H](O)CO [L-Sorbosone]
- Relative activity (%) [2, 5]: 100%
- Relative activity (%) ([2]; pH 9.0, 100 mM Tris-HCl): 100%
- Product (deduced product of the oxidation of the substrate) [2]: Vitamin C/2-KGA

Structure (SMILES): [Cl-].[Cl-].[Mg+2] [MgCl2]
- Relative activity (%) [1, 4]: 88.5%

Structure (SMILES): O=C(O)CI [Monoiodoacetate]
- Effect on the enzyme activity [1]: strongly inhibited
- Relative activity (%) [1]: 34.7%

Structure (SMILES): NC(=O)c1ccc[n+]([C@H]2O[C@@H](COP(=O)([O-])OP(=O)(O)OC[C@H]3O[C@@H](n4cnc5c(N)ncnc54)[C@H](OP(=O)(O)O)[C@@H]3O)[C@H](O)[C@@H]2O)c1 [NADP]
- Suitability as electron acceptor [3]: not suitable electron acceptors

Structure (SMILES): NC(=O)c1ccc[n+]([C@@H]2O[C@H](COP(=O)([O-])OP(=O)(O)OC[C@H]3O[C@@H](n4cnc5c(N)ncnc54)[C@H](O)[C@@H]3O)[C@@H](O)[C@H]2O)c1 [NAD]
- Suitability as electron acceptor [3]: not suitable electron acceptors

Structure (SMILES): [N-]=[N+]=[N-].[Na+] [NaN3]
- Relative activity (%) ([1]; compound at 5.0 mM, None = 100.0): 98.4%

Structure (SMILES): O.O.O.O.O.O.O=S(=O)([O-])[O-].[Ni+2] [NiSO4.6H2O]
- Relative activity (%) [1, 4]: 82.9%
- Effect on the enzyme activity ([1]; metal ions, 1.0 mM): inhibited

Structure (SMILES): [Cl][Ti]([Cl])([Cl])[Cl] [TiCl4]
- Relative activity (%) [1, 4]: 95.9%

Structure (SMILES): [Cl-].[Cl-].[Zn+2] [ZnCl2]
- Relative activity (%) [1, 4]: 64.9%
- Effect on the enzyme activity ([1]; metal ions, 1.0 mM): inhibited

Structure (SMILES): O=O [oxygen]
- Suitability as electron acceptor [3]: does not work

Source: US20050153412A1, “Aldehyde dehydrogenase II” (priority 2002, published 2005)
